“And” between values parts separate entries of the source, which are not always exact repeats. Equal values may be shown once.
Experiments:
[1] = Inhibition of tetrabenazine induced depression of exploratory behavior in mice; format: in vivo; details: for Number Responded/Number Treated: intraperitoneally or orally, 1 h before tetrabenazine 30 mg/kg; for ED50: Mus musculus, calculated by method of Finney, dose column in mg/kg, read-out: ED50 (95% C.L.)
Method: Varying doses of the test compounds are administered intraperitoneally or orally to 5 mice one hour before the administration of tetrabenazine hexamate at an intraperitoneal dose of 30 mg/kg which is known to depress markedly the exploratory behavior of normal mice. Thirty minutes later the mice are tested for their exploratoy behavior. Individual mice are placed in the center of a horizontal disc. Inhibition of the depression induced by tetrabenazine is considered present if the mice perform one or more of the following actions within 10 seconds after being placed on the disc:
(1) Animals move to the edge of the disc and pear over the side.
(2) Animals move 180° in place.
(3) Animals display a head movement of 90° immediately followed by a head movement in the opposite direction of at least 45°.
Administration of the test compounds to additional groups of 5 mice is repeated, the numbers of individual animals showing an anti-depressant response (normal exploratory behavior) is recorded and the results are analyzed by the following scheme (statistically standardized; significant P = less than 0.05).
The results from several dose levels (acceptance in at least two sequential test procedures) are then used to establish the Range of Active Doses.

[2] = Prevention of reserpine-induced hypothermia in rats; format: in vivo; details: for ED50: Rattus norvegicus, oral, dose column in mg/kg, read-out: ED50 (95% C.L.)
Method: Groups of 5 rats were treated orally with graded doses of the test compounds. One hour later the animals were treated with reserpine (solubilized in propylene glycol and citric acid) at a dose of 5 mg/kg intraperitoneally. Rectal temperatures were measured using a YSI Telethermometer. Temperatures were recorded just prior to treatment, one hour later just prior to reserpine administration and at hourly intervals following reserpine administration for 5 hours. […]

[3] = reduction of spontaneous motor activity (Animax Activity Counter); format: in vivo; details: Rattus norvegicus, 5 min; oral, rats, 5 minute period; read-out: MDD50 (effective dose that causes a 50% reduction in motor activity)
Method: A useful test for anti-psychotic activity consists of measuring the reduction of spontaneous motor activity in animals.
Groups of 4 rats are treated orally with the test compound dissolved or suspended in starch vehicle at the maximum tolerated dose. At the estimated time of peak effect, the animals are placed singly into an Animax Activity Counter and the activity of each rat is recorded over a 5 minute period. The activity counts are compared to historical or parallel control values to determine significant increased or decreased locomotor activity.

[4] = reversible ptosis test; format: in vivo; details: oral, rats
Method: A useful test for anti-psychotic activity consists of measuring ptosis in animals.
Ptosis is defined as closure of the palpebral aperture (eyelid) greater than 70%. The compounds to be tested were administered orally to groups of 10 rats each. Periodically after treatment the rats were gently placed on the cage top and examined for 90 seconds for signs of ptosis. This manipulation eliminates spontaneous ptosis. The rats were then dropped from a height of about 18 inches (exteroceptive stimulation) onto the cage top to test for reversibility of ptosis. Reversible ptosis is defined as less than 70% closure of the palpebral aperture for longer than one minute after the exteroceptive stimulation and is indicative of neuroleptic activity of the drug administered.

[5] = "writhing syndrome" test for analgesic activity (phenyl p-quinone); format: in vivo, male Swiss albino mice; details: 6.25 mg/kg oral; control approximately 30 per pair; active if 18 or less
Method: This method is based upon the reduction of the number of writhes following the intraperitoneal injection of one mg./kg. of body weight of phenyl p-quinone in male Swiss albino mice weighing 15-25 g. The syndrome is characterized by intermittent contractions of the abdomen, twisting and turning of the trunk, and extension of the hind legs beginning 3 to 5 minutes after injection of the phenyl p-quinone. The test compounds are administered orally at the indicated dose to groups of 2 mice each, 30 minutes before injection of the phenyl p-quinone.

## CN1c2ccccc2N=C(N2CCN(CCO)CC2)c2cscc21 [4-(4-Methyl-4H-thieno[3,4-b][1,5]-benzodiazepin-10-yl)-1-piperazineethanol]
[1]; 1.56 mg/kg
  Number Responded/Number Treated: 5/30
[1]; 3.13 mg/kg
  Number Responded/Number Treated: 10/30
[1]; 6.25 mg/kg
  Number Responded/Number Treated: 9/20
[1]; 12.5 mg/kg
  Number Responded/Number Treated: 11/20
[1]; 25.0 mg/kg
  Number Responded/Number Treated: 10/20
[1]
  ED50: 13 mg/kg
[2]; 5 mg/kg oral, 2 hours after reserpine
  Percent of Animals Showing > Two Standard Deviations in Rectal Temperature Over Control Means: 0%
[2]; 5 mg/kg oral, 3 hours after reserpine
  Percent of Animals Showing > Two Standard Deviations in Rectal Temperature Over Control Means: 0%
[2]; 5 mg/kg oral, 4 hours after reserpine
  Percent of Animals Showing > Two Standard Deviations in Rectal Temperature Over Control Means: 0%
[2]; 5 mg/kg oral, 5 hours after reserpine
  Percent of Animals Showing > Two Standard Deviations in Rectal Temperature Over Control Means: 0%
[2]; 10 mg/kg oral, 2 hours after reserpine
  Percent of Animals Showing > Two Standard Deviations in Rectal Temperature Over Control Means: 80%
[2]; 10 mg/kg oral, 3 hours after reserpine
  Percent of Animals Showing > Two Standard Deviations in Rectal Temperature Over Control Means: 80%
[2]; 10 mg/kg oral, 4 hours after reserpine
  Percent of Animals Showing > Two Standard Deviations in Rectal Temperature Over Control Means: 80%
[2]; 10 mg/kg oral, 5 hours after reserpine
  Percent of Animals Showing > Two Standard Deviations in Rectal Temperature Over Control Means: 80%
[2]; 20 mg/kg oral, 2 hours after reserpine
  Percent of Animals Showing > Two Standard Deviations in Rectal Temperature Over Control Means: 100%
[2]; 20 mg/kg oral, 3 hours after reserpine
  Percent of Animals Showing > Two Standard Deviations in Rectal Temperature Over Control Means: 80%
[2]; 20 mg/kg oral, 4 hours after reserpine
  Percent of Animals Showing > Two Standard Deviations in Rectal Temperature Over Control Means: 80%
[2]; 20 mg/kg oral, 5 hours after reserpine
  Percent of Animals Showing > Two Standard Deviations in Rectal Temperature Over Control Means: 40%
[2]; 2 hours after reserpine
  ED50: 9.1 mg/kg
[2]; 3 hours after reserpine
  ED50: 10.6 mg/kg
[2]; 4 hours after reserpine
  ED50: 10.6 mg/kg
[2]; 5 hours after reserpine
  ED50: 14.6 mg/kg

## CN1CCN(C2=Nc3ccc(Cl)cc3Nc3cscc32)CC1 [6-Chloro-10-(4-methyl-1-piperazinyl)-4H-thieno[3,4-b][1,5]benzodiazepine]
[3]
  ED50: 7.7 mg/kg
[4]
  ED50 (dose estimated to create reversible ptosis in 50% of the animals): 17 mg/kg
[5]
  No. of Writhes Per Pair: 7 and 6

## CCN1CCN(C2=Nc3ccccc3N(C)c3cscc32)CC1 [4-Methyl-10-(4-ethyl-1-piperazinyl)-4H-thieno[3,4-b][1,5]benzodiazepine]
[1]; 3.13 mg/kg
  Number Responded/Number Treated: 3/15
[1]; 6.25 mg/kg
  Number Responded/Number Treated: 10/30
[1]; 12.5 mg/kg
  Number Responded/Number Treated: 12/25
[1]; 25.0 mg/kg
  Number Responded/Number Treated: 10/25
[1]
  ED50: ~35 mg/kg

— patent US4087421A, “Substituted benzodiazepines and method of use” (American Cyanamid Company, priority 1977, dated 1978)
